A word on the inhibition: it is the percentage by which the read-out fell short of the control. One may read the IC50 as the point on the concentration scale where inhibition reaches its midpoint.

The results in this text go back to patent publication US5760036A, “Aminediol protease inhibitors” (E. R. Squibb & Sons, Inc., priority 1995, dated 1998).

Each structure is given as a SMILES string. Read-outs that look alike come from different tables or passages of the source. Where only a bound is given, the exact number is not on record here.

The target of one assay is T1, HIV protease (Human immunodeficiency virus type 1 group M subtype B, UniProt P04585).
T1 construct: and purified protease
The assay is described as follows: HIV Protease Assay. In kind it is biochemical. In short, it runs like this: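 Purified protease cleaved 450 μM octapeptide substrate in 50 mM sodium acetate pH 5.5 with 100 μg/ml BSA for 30 minutes at 37° C; product analyzed by reverse-phase HPLC at UV220 after H3PO4 quench. Inhibitors tested at final 10 μM with 4% DMSO.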

Assay [1] has as its system RF strain of HIV (CEM-SS cells). The experiment in a line: Cell Culture Anti-HIV Activity (cell viability, formazan). As to conditions: Human immunodeficiency virus 1, CEM-SS, 144 h, CEM-SS cells, RF strain of HIV, multiplicity of infection 0.04, 6 days at 37° C., 450 nm; read-out: HIV (CEM Cells) IC50. In kind it is cell-based. The protocol: The antiviral activity of aminediol inhibitors of the present invention was evaluated by a microculture method which determines the increase in cell viability of an infected culture when a drug is added. The assay depends on the metabolic reduction of tetrazolium reagent by viable cells to yield a soluble colored formazan product.
The assay was performed as follows: suspensions of CEM-SS cells (5000/well) were infected with the RF strain of HIV at a multiplicity of infection at 0.04 in a 96-well plate. The compounds of the present invention listed in the following Table 1, serially diluted in half-log fashion, were added to the infected and uninfected control cells. Untreated (infected and uninfected) cells were included as controls. Following incubation for 6 days at 37° C., viable cells in each well were quantitated by the visible light absorbance at 450 nm.
The IC50 was calculated as the concentration of drug that increased the formazan production in virally infected cells to 50% of that produced by uninfected cells in the absence of drug.

[2] abbreviates: pH 5.5, 10 μM inhibitor, 4% DMSO, 450 μM substrate, pH 5.5, 30 minutes at 37° C., RP-HPLC, read-out: HIV Protease % Inhibition at 10 μM.
[3] abbreviates: pH 5.5, read-out: HIV Protease % Inhibition at 10 μM.

Take `CC(C)(C)OC(=O)N[C@@H](Cc1ccccc1)[C@H](O)CNC[C@@H](O)[C@H](Cc1ccccc1)NC(=O)OC(C)(C)C#CCCc1ccccc1` [Compound 155, [1S-(1R*,2S*)]-[Iminobis[2-hydroxy-1-(phenylmethyl)-3,1-propanediyl]biscarbamic acid, 1,1-dimethylethyl 1,1-dimethyl-5-phenyl-2-pentynyl ester]: at HIV protease (setting [2]), the inhibition at 10 µM came out at 95%. Besides, the IC50 in assay [1] was over 200 nM. Taken in the same sequence, the figures for `COCCOc1ccc(C[C@H](NC(=O)OC(C)(C)C)[C@H](O)CNC[C@@H](O)[C@H](Cc2ccccc2)NC(=O)OC(C)(C)CO)cc1` [Compound 299, [1S-[1R*, 2S*(2S*,3R*)]-[3-[[(1,1-Dimethylethoxy)carbonyl]amino]-2-hydroxy-4-[4-(2-methoxyethoxy)phenyl]butyl]amino]-2-hydroxy-1-(phenylmethyl)propyl]carbamic acid, 1-(hydroxymethyl)-1-methylethyl ester] were 99% and 240 nM. On to `CC(C)[C@H](NC(=O)OCc1cc2ccccc2[nH]1)C(=O)N[C@@H](Cc1ccccc1)[C@H](O)CNC[C@@H](O)[C@H](Cc1ccccc1)NC(=O)OC(C)(C)C` (relative stereo) [Compound 104, [1R*,2S*(2S*,3R*)]-N-[3-[[3-[[(1,1-dimethylethoxy)carbonyl]amino]-2-hydroxy-4-phenylbutyl]amino]-2-hydroxyl-1-(phenylmethyl)propyl]-N^2-[(1H-indol-2-ylmethoxy)carbonyl]-L-valinamide], for which, on HIV protease (setting [2]), the inhibition at 10 µM amounted to 99%. Besides, the IC50 in assay [1] amounted to 30 nM. In the case of `CC(C)(C)OC(=O)N[C@@H](Cc1ccccc1)[C@H](O)CNC[C@@H](O)[C@H](Cc1ccccc1)NC(=O)[C@@](C)(O)C(C)(C)C` [Compound 261, [1S-[1R*,2S*[2R*,3R*(R*)]]]-[3-[[3-[(2-Hydroxy-2,3,3-trimethyl-1-oxobutyl)amino]-2-hydroxy-4-phenylbutyl]amino]-2-hydroxy-1--(phenylmethyl)propyl]carbamic acid, 1,1-dimethylethyl ester], the inhibition at 10 µM on HIV protease (setting [3]) came out at 94%. In addition, in assay [1], the IC50 was determined as 1100 nM.

For the compound `CC(C)(C)OC(=O)N[C@@H](Cc1ccccc1)[C@H](O)CNC[C@H](O)[C@H](Cc1ccccc1)NC(=O)OC(C)(C)C` [Compound 5, [1S-[1R*,2S*(2R*,3R*)]]-[3-[[3-[[(1,1-Dimethylethoxy)carbonyl]amino]-2-hydroxy-4-phenylbutyl]amino]-2-hydroxy-1-(phenylmethyl)propyl]carbamic acid, 1,1-dimethylethyl ester], the inhibition at 10 µM on HIV protease (setting [2]) worked out at 41%. The 50% inhibitory concentration (IC50) in assay [1] is 2800 nM. In the case of `CC(C)(C)OC(=O)N[C@@H](Cc1ccccc1)[C@H](O)CNC[C@@H](O)[C@H](Cc1ccc(OCc2nc3ccccc3o2)cc1)NC(=O)OC(C)(C)C` [Compound 242, [1S-[1R*,2S*(2S*,3R*)]]-[3-[[4-[4-[(2-Benzoxazolyl)methoxy]phenyl]-3-[[(1,1-dimethylethoxy)carbonyl]amino]-2-hydroxybutyl]amino]-2-hydroxy-1-(phenylmethyl)propyl]carbamic acid, 1,1-dimethylethyl ester], at HIV protease (setting [2]), the inhibition at 10 µM turned out to be 99%. The IC50 in assay [1] is 110 nM. As to `CN(C(=O)NC(C)(C)C)[C@@H](Cc1ccccc1)[C@H](O)CNC[C@@H](O)[C@H](Cc1ccccc1)NC(=O)OC(C)(C)C` [Compound 136, [1S-[1R*,2S*(2S*,3R*)]]-[3-[[3-[[[(1,1-Dimethylethyl)amino]carbonyl]methylamino]-2-hydroxy-4-phenylbutyl]amino]-2-hydroxy-1-(phenylmethyl))propyl]carbamic acid, 1,1-dimethylethyl ester], the inhibition at 10 µM on HIV protease (setting [2]) amounted to 73%. The same measure, in the same setting: to `CC(C)(C)OC(=O)N1CCC[C@H]1C(O)CNCC(O)[C@@H]1CCCN1C(=O)OC(C)(C)C` (single isomer, unassigned) [Compound 7] belongs 8%; to `CC(C)[C@H](N)C(=O)N[C@@H](Cc1ccccc1)[C@H](O)CNC[C@@H](O)[C@H](Cc1ccccc1)NC(=O)OC(C)(C)C` [Compound 59, [S-[1R*,2S*(2S*,3R*)-N-[3 [[3-[[(1,1-Dimethylethoxy)carbonyl]amino]-2-hydroxy-4-phenylbutyl]amino]-2-hydroxy-1-(phenylmethyl)-propyl-L-valinamide], 45%; to `CC(C)(C)OC(=O)NC[C@H](O)[C@@H](Cc1ccccc1)NC[C@@H](O)[C@H](Cc1ccccc1)NC(=O)OC(C)(C)C` [Compound 187, [2S-[2R*,3S*(2S*,3R*)]]-[3-[[3-[[(1,1-Dimethylethoxy)carbonyl]amino]-2-hydroxy-4-phenylbutyl]amino]-2-hydroxy-4-phenylbutyl]carbamic acid, 1,1-dimethylethyl ester], 28%. Turning to `CC(C)(C)OC(=O)N[C@@H](Cc1ccccc1)[C@H](O)CNC[C@@H](O)[C@H](Cc1ccccc1)NC(=O)O[C@@H]1COC[C@H]1O` [Compound 317, [1S-(1R*,2S*), (3R-trans)l-[Iminobis[2-hydroxy-1-(phenylmethyl)-3,1-propanediyl]]bis[carbamic acid], 4-hydroxy-3-tetrahydrofuranyl 1,1-dimethylethyl ester], the inhibition at 10 µM at HIV protease (setting [2]) turned out to be 85%. The same measure, in the same setting: to `CC(C)(C)OC(=O)N1Cc2ccccc2C[C@H]1[C@H](O)CNC[C@H](O)[C@@H]1Cc2ccccc2CN1C(=O)OC(C)(C)C` [Compound 12, [S-(R*,R*)]-3-[2-[[[-(R*,S*)]-2-[2-[(1,1-Dimethylethoxy)carbonyl]-1,2,3,4-tetrahydro-3-isoquinolinyl]-2-hydroxyethyl]amino]-1-hydroxyethyl]-3,4-dihydro-2(1H)-isoquinolinecarboxylic acid, (1,1-dimethylethyl) ester] belongs 1%; to `CC(C)(C)OC(=O)N[C@@H](Cc1ccccc1)[C@H](O)CNC[C@@H](O)[C@H](Cc1ccccc1)NC(=O)OCc1nc(-c2ccccc2)c[nH]1` [Compound 253, [R-(R*,S*)]-[Iminobis[2-hydroxy-1-(phenylmethyl)-3,1-propanediyl)]biscarbamic acid, 1,1-dimethylethyl(4-phenyl-1H-imidazol-2-yl)methyl ester], 85%. Consider `CC(C)(C)OC(=O)N[C@@H](Cc1ccccc1)[C@H](O)CNC[C@@H](O)[C@H](Cc1ccccc1)NC(=O)OC(C)(CO)CO` [Compound 251, [R-(R*,S*)]-[Iminobis[2-hydroxy-1-(phenylmethyl)-3,1-propanediyl)]biscarbamic acid, 1,1-bis(hydroxymethyl)ethyl 1,1-dimethylethyl ester], for which the inhibition at 10 µM on HIV protease (setting [2]) amounted to 98%.

As to `CC(C)(C)OC(=O)N[C@@H](Cc1ccccc1)[C@H](O)CNC[C@@H](O)[C@H](Cc1ccccc1)NC(=O)OC(C)(C)CN` [Compound 216, [1S-(1R*,2S*)]-[Iminobis[2-hydroxy-1-(phenylmethyl)-3,1-propanediyl]]biscarbamic acid. 2-amino-1,1-dimethylethyl-1,1-dimethylethyl ester], at HIV protease (setting [3]), the inhibition at 10 µM came to 49%. Consider `CC(C)[C@H](NC(=O)OCc1ccccc1)C(=O)N[C@@H](Cc1ccccc1)[C@@H](O)CNC[C@H](O)[C@H](Cc1ccccc1)NC(=O)OC(C)(C)C` [Compound 117, [S-[1R*,2R*(2R*,3R*)]]-N-[3-[[3-[[(1,1-Dimethylethoxy)carbonyl]amino]-2-hydroxy-4-phenylbutyl]amino]-2-hydroxy-1-(phenylmethyl)propyl]-N^2-[(phenylmethoxy)-carbonyl]-L-valinamide], for which, on HIV protease (setting [2]), the inhibition at 10 µM was determined as 14%.

On to `CC(C)(C)OC(=O)N[C@@H](Cc1ccccc1)[C@H](O)CNC[C@@H](O)[C@H](Cc1ccccc1)NC(=O)C1NC(=O)OC1(C)C` (single isomer, unassigned; isomer a) [Compound 239, [1S-[1R*,2S*(2S*,3R*)]]-[3-[[3-[[(5,5-Dimethyl-2-oxo-4-oxazolidinyl)carbonyl]amino]-2-hydroxy-4-phenylbutyl]amino]-2-hydroxy-1-(phenylmethyl)propyl]carbamic acid, 1,1-dimethylethyl ester, isomer A], for which, on HIV protease (10 μM inhibitor, 4% DMSO, 450 μM substrate, pH 5.5, 30 minutes at 37° C., RP-HPLC), the “HIV Protease % Inhibition at 10 μM” value is 37%. Take `CC(C)(C)OC(=O)N[C@@H](Cc1ccccc1)[C@H](O)CNC[C@@H](O)[C@H](Cc1ccccc1)NC(=O)OC(CO)c1cccnc1` (stereo partly drawn) [Compound 277, [R-(R*,S*)]-[Iminobis[2-hydroxy-1-(phenylmethyl)-3,1-propanediyl)]biscarbamic acid, 1,1-dimethylethyl-2-hydroxy-1-(3-pyridinyl)ethyl ester]: on HIV protease (setting [2]), the inhibition at 10 µM was determined as 67%. Still for that read-out and setting: in the case of `CC(C)C[C@H](NC(=O)OC(C)(C)C)C(O)CN(Cc1ccccc1)CC(O)[C@H](CC(C)C)NC(=O)OC(C)(C)C` (stereo partly drawn) [Compound 196, (3S,3S')-[[(Phenylmethyl)nitrilo]-bis(2-hydroxy-5-methyl-3,1-hexandiyl)]-biscarbamic acid, bis(1,1-dimethylethyl)ester] it was 6%.
